Tests used:
NRF2-regulated genes = assay: mRNA of NRF2-regulated genes in MEFs (qRT-PCR); type: cell-based, mouse; details: PHAR 10 μM, 8 h
Protocol: FIG. 4. PHAR activates the NRF2 pathway. MEFs in serum-depleted conditions were subjected to (A-C) 1 μM, 3 μM, or 10 μM of PHAR and 10 μM of SFN as a positive control for 16 h; or (D-F) 10 μM of PHAR for the indicated times. In both experiments, 0.1% DMSO was used as a vehicle. A), representative immunoblots of NRF2, HO1, KEAP1, LAMINB, and GAPDH as loading controls. B) and C), densitometric analysis of NRF2 and HO1 protein levels of the representative immunoblots depicted in (A), expressed as a ratio of NRF2/LAMINB or HO1/GAPDH. The data is depicted as means±SEM (n=3). Statistical analysis was performed with one-way ANOVA followed by the Bonferroni test to check inter-group differences. *p<0.05; ***p<0.001 vs. 0. D), representative immunoblots of NRF2, HO1, KEAP1, LAMINB, and GAPDH as loading controls. E) and F), Densitometric analysis of NRF2 and HO1 protein levels of the representative immunoblots of (D), expressed as a ratio of NRF2/LAMINB or HO1/GAPDH. The data is depicted as means±SEM (n=3). Statistical analysis was performed with one-way ANOVA followed by the Bonferroni test to check inter-group differences. *p<0.05; ***p<0.001 vs. 0. […] Luciferase activity was measured after 16 h of treatment. […] The mRNA levels of Hmox1, Nqo1, Aox1, Glc, and Gclm after 8 h of treatment were determined by means of pRT-PCR and normalized by means of average LaminB, Gapdh, and β-actin. […]

[1] = HPLC-MS detection of PHAR in liver after IP injection; type: in vivo, mouse; details: mice, single IP 50 mg/kg, 120 min
Protocol: FIG. 9. PHAR activates NRF2 and HO-1 in liver. A), UV and MS spectrum derived from the HPLC-MS analysis of PHAR dissolved in methanol for the identification of peaks associated with the compound. A blue rectangle surrounds the mass associated with PHAR. (B-D), the mice were treated with the vehicle (Tween-80+PBS, 1:13), 50 mg/kg of PHAR, or 50 mg/kg of SFN (saline) as a positive control by means of intraperitoneal (IP) injection for 2 hours. B), HPLC-MS UV and MS spectra derived from representative liver samples of both experimental groups used for determining PHAR levels in the liver 120 min after a single IP injection of 50 mg/kg. A blue rectangle surrounds the mass associated with PHAR. C), representative immunoblots showing NRF2, HO1, and LAMINB protein levels as the liver extract loading control. D), densitometric analysis of NRF2 protein levels of the representative immunoblots shown in (C), expressed as a ratio of NRF2/LAMINB. Statistical analysis was performed with one-way ANOVA followed by the Bonferroni test to compare inter-group differences. ***p<0.001 vs. vehicle. […] F), densitometric analysis of NRF2 and HO1 protein levels in the liver tissue of the representative immunoblots shown in (E), expressed as a ratio of NRF2/LAMINB or HO1/LAMINB levels. […]
Once the mechanism of action of PHAR was deciphered, the capacity thereof to induce NRF2 levels in a murine model was evaluated. […]

Compound: O=C1[C@@H]2[C@H](Cc3c[nH]c4ccccc34)N[C@]3(C(=O)Nc4ccc(Cl)cc43)[C@@H]2C(=O)N1c1ccc2c(c1)OCCO2 [PHAR]
- transcripts of Hmox1, Nqo1, Aox1, Gclc, Gclm (NRF2-regulated genes): increase in the corresponding transcripts was observed in all the cases
- presence of PHAR in liver tissue (HPLC-MS) [1]: corresponded with the presence of the compound
